Measured values published in patent US4143032A, “Hexapeptides having analgesic activities” (American Home Products Corporation, priority 1977, dated 1979).
Non-standard residues stand in square brackets, D forms with d. Residues, ends and D or L forms follow the SMILES beside them.

Key:
rats [1] = assay: rat-tail flick method of D'Amour and Smith (analgesic activity); format: in vivo; details: single dose
Procedure: In this procedure, a single intravenous dose of from 0.5 to 20 mg/kg., will produce analgesia in the rat. Preferably, a dose of from 1 to 10 mg/kg. is employed. The exact dose to be employed will vary depending on the particular compound employed and the degree of analgesia desired. The determination of the precise dose to produce the desired effect will be readily ascertained by those skilled in the art. With representative compound H-Arg-Tyr-D-Ala-Gly-Phe-D-Leu-NH2, the following results were obtained: […]

guinea pig ileum = details: cited from earlier work
[2] = peripheral administration, for example intravenous; cited from earlier work
opiate receptor = details: brain homogenates; cited from earlier work
rats [3] = details: injection in the brain ventricle in rats; fully reversible by naloxone; cited from earlier work
mouse vas deferens = details: cited from earlier work
[4] = administered intracerebroventricularly; cited from earlier work

| Compound | No. Showing Analgesic/No. Tested (rats [1]; 1.0 mg/kg. i.v.) | No. Showing Analgesic/No. Tested (rats [1]; 2.5 mg/kg. i.v.) | No. Showing Analgesic/No. Tested (rats [1]; 5 mg/kg. i.v.) | ability to block electrically evoked contractions (guinea pig ileum) | peripheral activity [2] | inhibition of stereospecific receptor binding of 3H-naloxone (opiate receptor) | analgesia (rats [3]) | ability to block electrically evoked contractions (mouse vas deferens) | activity [4] |
| --- | --- | --- | --- | --- | --- | --- | --- | --- | --- |
| CC(=O)O.CC(=O)O.CC(C)C[C@@H](NC(=O)[C@H](Cc1ccccc1)NC(=O)CNC(=O)[C@@H](C)NC(=O)[C@H](Cc1ccc(O)cc1)NC(=O)[C@@H](N)CCCNC(=N)N)C(N)=O [H-Arg-Tyr-D-Ala-Gly-Phe-D-Leu-NH2, L-Arginyl-L-Tyrosyl-D-Alanyl-Glycyl-L-Phenylalanyl-D-Leucyl Amide Diacetate] (H-RY[dA]GF[dL]-NH2) | 2/6 | 2/6 | 6/6 |  |  |  |  |  |  |
| H-Tyr-Gly-Gly-Phe-Leu-OH [leucine-enkephalin] |  |  |  | block electrically evoked contractions | inactive peripherally | inhibit the stereospecific receptor binding | induce a profound analgesia | block electrically evoked contractions |  |
| H-Tyr-Gly-Gly-Phe-Met-OH [methionine-enkephalin] |  |  |  | block electrically evoked contractions | inactive peripherally | inhibit the stereospecific receptor binding | induce a profound analgesia | block electrically evoked contractions |  |
| Tyr-D-Ala-Gly-Phe-D-Leu |  |  |  |  |  |  |  |  | activity |
